One block for each compound: values may come before it.
How the values were obtained:
[1] = molecular target: T1, Proteinase-activated receptor 4 (Homo sapiens, UniProt Q96RI0); assay: Antagonist activity against human PAR4 expressed in HEK293 cells assessed as reduction in H-Ala-Phe(4-F)-Pro-Gly-Trp-Leu-Val-Lys-Asn-Gly-NH2-induced intracellular calcium mobilization incubated for 30 mins before agonist addition by FLIPR assay; assay type: functional, cell-based
T1 sequence (Q96RI0 whole entry): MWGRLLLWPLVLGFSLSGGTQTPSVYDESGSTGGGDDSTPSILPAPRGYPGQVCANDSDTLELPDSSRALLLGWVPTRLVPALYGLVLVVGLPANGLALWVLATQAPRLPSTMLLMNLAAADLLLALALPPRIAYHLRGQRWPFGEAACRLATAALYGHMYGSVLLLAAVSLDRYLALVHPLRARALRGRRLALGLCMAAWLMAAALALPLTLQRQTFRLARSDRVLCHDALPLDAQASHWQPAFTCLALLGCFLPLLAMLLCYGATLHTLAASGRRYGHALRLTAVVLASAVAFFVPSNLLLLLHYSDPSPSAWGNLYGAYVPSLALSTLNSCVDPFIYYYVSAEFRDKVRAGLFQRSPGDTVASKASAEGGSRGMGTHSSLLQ

[2] = molecular target: T2, Proteinase-activated receptor 4 (Homo sapiens) (UniProt Q96RI0); assay: Antagonist activity against PAR4 in washed human platelets assessed as inhibition of […] alpha-thrombin-induced platelet aggregation pre-incubated for 5 mins before alpha-thrombin addition by optical aggregometry; assay type: functional
T2 sequence (whole entry): T1 sequence (Q96RI0 whole entry)

[3] = molecular target: T2, Proteinase-activated receptor 4 (Homo sapiens); assay: Antagonist activity against PAR4 in washed human platelets assessed as inhibition of 5 nM alpha-thrombin-induced platelet aggregation pre-incubated for 5 mins before alpha-thrombin addition by optical aggregometry; assay type: functional
Cynomolgus monkey [4] = assay: Antithrombotic activity in cynomolgus monkey model of electrolytic injury-induced carotid artery thrombosis assessed as reduction in thrombosis-induced occlusion by measuring thrombus weight at 2 mg/kg, po dosed 1 to 2 hrs before test; assay type: functional, Macaca fascicularis; parameters: scale not given: the % may be the effect or the level left
Cynomolgus monkey [5] = assay: Antithrombotic activity in cynomolgus monkey model of electrolytic injury-induced carotid artery thrombosis assessed as reduction in thrombosis-induced occlusion by measuring thrombus weight at 0.4 mg/kg, po dosed 1 to 2 hrs before test; assay type: functional, Macaca fascicularis; parameters: scale not given: the % may be the effect or the level left
Cynomolgus monkey [6] = assay: Antithrombotic activity in cynomolgus monkey model of electrolytic injury-induced carotid artery thrombosis assessed as reduction in thrombosis-induced occlusion by measuring thrombus weight at 10 mg/kg, po dosed 1 to 2 hrs before test; assay type: functional, Macaca fascicularis; parameters: scale not given: the % may be the effect or the level left

IC50 [1]: 8.15 nM
SMILES: CSc1nn2cc(-c3cc4c(C(F)(F)F)cc(C)nc4o3)nc2s1

inhibition [2]: Dose-dependent effect | inhibition [3]: Dose-dependent effect
SMILES: COc1cc(OCc2ccccc2)c2cc(-c3cn4nc(OC)sc4n3)oc2c1

IC50 [1]: 5.49 nM
SMILES: COc1cc(OCc2cccc(OCc3ccc(OC)c(C)c3C)c2)c2cc(-c3cn4nc(OC)sc4n3)oc2c1

SMILES: COc1cc(OCc2cccc(OCc3ccccc3)c2)c2cc(-c3cn4nc(OC)sc4n3)oc2c1
Activity (Cynomolgus monkey [4]): -38% | Activity (Cynomolgus monkey [5]): -9% | Activity (Cynomolgus monkey [6]): -38%

IC50 [1]: 38.2 nM
SMILES: COc1nn2cc(-c3cc4ccc([N+](=O)[O-])cc4o3)nc2s1

IC50 [1]: 11.1 nM
SMILES: COc1cccc2oc(-c3cn4nc(SC)sc4n3)cc12

From ChEMBL document CHEMBL3727363, “Imidazothiadiazole derivatives as protease activated receptor 4 (PAR4) inhibitors for treating platelet aggregation” (2013)
